# The supplement of paper PMC10307832
# Legend:
# Assay in all cases: relative viability (nuclei count vs DMSO), 5 days (fraction); higher = more cells survive
# 201T = test system: 201T
# Procedure, shortened: (§1)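 Relative viability equals treated-well nuclei counts divided by vehicle-well nuclei counts. Counts came from 4× images of lung cancer cell lines grown in 1536-well plates for 5 days after pin-tool dosing on the day after seeding. Dosing used one drug alone or a fixed anchor-drug dose plus five library-drug doses (not always all listed) in √10 steps, and values are medians of duplicate plates.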
# A-427 = test system: A-427
# Procedure, shortened: as §1
# BEN = test system: BEN
# Procedure, shortened: as §1
# COR-L23 = test system: COR-L23
# Procedure, shortened: as §1
# EKVX = test system: EKVX
# Procedure, shortened: as §1
# EMC-BAC-2 = test system: EMC-BAC-2
# Procedure, shortened: as §1
# EPLC-272H = test system: EPLC-272H
# Procedure, shortened: as §1
# HCC-44 = test system: HCC-44
# Procedure, shortened: as §1
# HCC-827 = test system: HCC-827
# Procedure, shortened: as §1
# LCLC-103H = test system: LCLC-103H
# Procedure, shortened: as §1
# LK-2 = test system: LK-2
# Procedure, shortened: as §1
# LXF-289 = test system: LXF-289
# Procedure, shortened: as §1
# NCI-H1650 = test system: NCI-H1650
# Procedure, shortened: as §1
# NCI-H1651 = test system: NCI-H1651
# Procedure, shortened: as §1
# NCI-H1793 = test system: NCI-H1793
# Procedure, shortened: as §1
# NCI-H1915 = test system: NCI-H1915
# Procedure, shortened: as §1
# NCI-H2087 = test system: NCI-H2087
# Procedure, shortened: as §1
# NCI-H2126 = test system: NCI-H2126
# Procedure, shortened: as §1
# NCI-H2347 = test system: NCI-H2347
# Procedure, shortened: as §1
# NCI-H358 = test system: NCI-H358
# Procedure, shortened: as §1
# NCI-H460 = test system: NCI-H460
# Procedure, shortened: as §1
# NCI-H596 = test system: NCI-H596
# Procedure, shortened: as §1
# SW 1573 = test system: SW 1573
# Procedure, shortened: as §1
compound,measurement,setting,value
O=c1[nH]c2ccccc2n1C1CCN(CCCC(c2ccc(F)cc2)c2ccc(F)cc2)CC1 [Pimozide] + N=C(N)NC(=N)NCCc1ccccc1 [Phenformin] (partner 250 µM),relative viability,201T; first compound 0.08 µM,0.467
same,relative viability,201T; first compound 0.253 µM,0.404
same,relative viability,201T; first compound 0.8 µM,0.444
same,relative viability,201T; first compound 2.53 µM,0.379
same,relative viability,201T; first compound 8 µM,0.44
same,relative viability,A-427; first compound 0.08 µM,0.368
same,relative viability,A-427; first compound 0.253 µM,0.361
same,relative viability,A-427; first compound 0.8 µM,0.36
same,relative viability,A-427; first compound 2.53 µM,0.238
same,relative viability,A-427; first compound 8 µM,0.26
same,relative viability,BEN; first compound 0.08 µM,0.278
same,relative viability,BEN; first compound 0.253 µM,0.274
same,relative viability,BEN; first compound 0.8 µM,0.258
same,relative viability,BEN; first compound 2.53 µM,0.289
same,relative viability,BEN; first compound 8 µM,0.3
same,relative viability,COR-L23; first compound 0.08 µM,0.455
same,relative viability,COR-L23; first compound 0.253 µM,0.479
same,relative viability,COR-L23; first compound 0.8 µM,0.407
same,relative viability,COR-L23; first compound 2.53 µM,0.456
same,relative viability,COR-L23; first compound 8 µM,0.49
same,relative viability,EKVX; first compound 0.08 µM,0.192
same,relative viability,EKVX; first compound 0.253 µM,0.235
same,relative viability,EKVX; first compound 0.8 µM,0.201
same,relative viability,EKVX; first compound 2.53 µM,0.235
same,relative viability,EKVX; first compound 8 µM,0.226
same,relative viability,EMC-BAC-2; first compound 0.08 µM,0.561
same,relative viability,EMC-BAC-2; first compound 0.253 µM,0.515
same,relative viability,EMC-BAC-2; first compound 0.8 µM,0.483
same,relative viability,EMC-BAC-2; first compound 2.53 µM,0.486
same,relative viability,EMC-BAC-2; first compound 8 µM,0.519
same,relative viability,EPLC-272H; first compound 0.08 µM,0.29
same,relative viability,EPLC-272H; first compound 0.253 µM,0.306
same,relative viability,EPLC-272H; first compound 0.8 µM,0.342
same,relative viability,EPLC-272H; first compound 2.53 µM,0.0767
same,relative viability,EPLC-272H; first compound 8 µM,0.253
same,relative viability,HCC-44; first compound 0.08 µM,0.253
same,relative viability,HCC-44; first compound 0.253 µM,0.206
same,relative viability,HCC-44; first compound 0.8 µM,0.138
same,relative viability,HCC-44; first compound 2.53 µM,0.142
same,relative viability,HCC-44; first compound 8 µM,0.278
same,relative viability,HCC-827; first compound 0.253 µM,0.403
same,relative viability,HCC-827; first compound 0.8 µM,0.464
same,relative viability,HCC-827; first compound 2.53 µM,0.443
same,relative viability,HCC-827; first compound 8 µM,0.42
same,relative viability,LCLC-103H; first compound 0.08 µM,0.327
same,relative viability,LCLC-103H; first compound 0.253 µM,0.324
same,relative viability,LCLC-103H; first compound 0.8 µM,0.317
same,relative viability,LCLC-103H; first compound 2.53 µM,0.332
same,relative viability,LCLC-103H; first compound 8 µM,0.364
same,relative viability,LK-2; first compound 0.08 µM,0.501
same,relative viability,LK-2; first compound 0.253 µM,0.367
same,relative viability,LK-2; first compound 2.53 µM,0.237
same,relative viability,LK-2; first compound 8 µM,0.345
same,relative viability,LXF-289; first compound 0.08 µM,0.501
same,relative viability,LXF-289; first compound 0.253 µM,0.502
same,relative viability,LXF-289; first compound 0.8 µM,0.475
same,relative viability,LXF-289; first compound 2.53 µM,0.505
same,relative viability,LXF-289; first compound 8 µM,0.487
same,relative viability,NCI-H1650; first compound 0.08 µM,0.378
same,relative viability,NCI-H1650; first compound 0.253 µM,0.45
same,relative viability,NCI-H1650; first compound 0.8 µM,0.495
same,relative viability,NCI-H1650; first compound 2.53 µM,0.418
same,relative viability,NCI-H1650; first compound 8 µM,0.306
same,relative viability,NCI-H1651; first compound 0.08 µM,0.346
same,relative viability,NCI-H1651; first compound 0.253 µM,0.305
same,relative viability,NCI-H1651; first compound 0.8 µM,0.316
same,relative viability,NCI-H1651; first compound 2.53 µM,0.338
same,relative viability,NCI-H1651; first compound 8 µM,0.283
same,relative viability,NCI-H1793; first compound 0.253 µM,0.29
same,relative viability,NCI-H1793; first compound 0.8 µM,0.226
same,relative viability,NCI-H1793; first compound 2.53 µM,0.237
same,relative viability,NCI-H1793; first compound 8 µM,0.356
same,relative viability,NCI-H1915; first compound 0.08 µM,0.363
same,relative viability,NCI-H1915; first compound 0.253 µM,0.349
same,relative viability,NCI-H1915; first compound 0.8 µM,0.349
same,relative viability,NCI-H1915; first compound 2.53 µM,0.366
same,relative viability,NCI-H1915; first compound 8 µM,0.367
same,relative viability,NCI-H2087; first compound 0.08 µM,0.5
same,relative viability,NCI-H2087; first compound 0.253 µM,0.47
same,relative viability,NCI-H2087; first compound 2.53 µM,0.464
same,relative viability,NCI-H2087; first compound 8 µM,0.393
same,relative viability,NCI-H2126; first compound 0.08 µM,0.513
same,relative viability,NCI-H2126; first compound 0.253 µM,0.519
same,relative viability,NCI-H2126; first compound 0.8 µM,0.464
same,relative viability,NCI-H2126; first compound 2.53 µM,0.525
same,relative viability,NCI-H2126; first compound 8 µM,0.584
same,relative viability,NCI-H2347; first compound 0.253 µM,0.474
same,relative viability,NCI-H2347; first compound 0.8 µM,0.374
same,relative viability,NCI-H2347; first compound 2.53 µM,0.451
same,relative viability,NCI-H2347; first compound 8 µM,0.269
same,relative viability,NCI-H358; first compound 0.08 µM,0.295
same,relative viability,NCI-H358; first compound 0.253 µM,0.37
same,relative viability,NCI-H358; first compound 0.8 µM,0.366
same,relative viability,NCI-H358; first compound 2.53 µM,0.313
same,relative viability,NCI-H358; first compound 8 µM,0.327
same,relative viability,NCI-H460; first compound 0.08 µM,0.556
same,relative viability,NCI-H460; first compound 0.253 µM,0.507
same,relative viability,NCI-H460; first compound 0.8 µM,0.501
same,relative viability,NCI-H460; first compound 2.53 µM,0.516
same,relative viability,NCI-H460; first compound 8 µM,0.492
same,relative viability,NCI-H596; first compound 0.08 µM,0.751
same,relative viability,NCI-H596; first compound 0.253 µM,0.774
same,relative viability,NCI-H596; first compound 0.8 µM,0.588
same,relative viability,NCI-H596; first compound 2.53 µM,0.637
same,relative viability,NCI-H596; first compound 8 µM,0.897
same,relative viability,SW 1573; first compound 0.08 µM,0.348
same,relative viability,SW 1573; first compound 0.253 µM,0.309
same,relative viability,SW 1573; first compound 0.8 µM,0.341
same,relative viability,SW 1573; first compound 2.53 µM,0.377
same,relative viability,SW 1573; first compound 8 µM,0.388
